{
  "source": "patent US20240294488A1",
  "about": "“ISOTOPOLOGES, SALTS, CRYSTALLINE FORMS, STEREOISOMERS, OF METHYLONE AND ETHYLONE AND METHODS OF USE THEREOF” (Terran Biosciences Inc., priority 2021, published 2024)",
  "experiment": "Dynamic vapor sorption (DVS)",
  "assay_type": "physicochemical",
  "experimental": "The sample for moisture analysis was allowed to dry at 25° C. for up to 4 hours under a stream of dry nitrogen. The relative humidity is then increased stepwise from 10 to 90% relative humidity (adsorption scan) allowing the sample to equilibrate for a maximum of four hours before weighing and moving on to the next step. The desorption scan is measured from 85 to 0% relative humidity with the same equilibration time. The sample is then dried under a stream of dry nitrogen at 80° C. for 2 hours or until no weight loss is observed.\nDVS analysis was carried out using a TA Instruments Q5000 Dynamic Vapor Sorption analyzer. The instrument was calibrated with standard weights and a sodium bromide standard for humidity. Approximately 10-25 mg of sample was loaded into a metal-coated quartz pan for analysis. The sample was analyzed at 25° C. with a maximum equilibration time of one hour in 10% relative humidity (RH) steps from 5 to 95% RH (adsorption cycle) and from 95 to 5% RH (desorption cycle). The movement from one step to the next occurred either after satisfying the equilibrium criterion of 0.01% weight change or, if the equilibrium criterion was not met, after one hour. The percent weight change values were calculated.",
  "note": "Counter-ions that a name gives are not always drawn.",
  "data": [
    {"smiles": "CNC(C)C(=O)c1ccc2c(c1)OCO2", "note": "(racemic) [(rac)-Methylone Hydrochloride, 3,4-methylenedioxy-N-methylcathinone hydrochloride]", "values": [
      {"measurement": "relative humidity above which water uptake occurs", "setting": "DVS, FIG. 26", "value": "above 75 % RH"},
      {"measurement": "physical stability after moisture sorption-desorption analysis", "setting": "between 5% RH and 95% RH", "value": "physically stable"},
      {"measurement": "water gain", "setting": "between 5% RH and 95% RH", "value": 0.33, "unit": "%"},
      {"measurement": "water loss", "setting": "between 95% RH and 5% RH", "value": 0.15, "unit": "%"},
      {"measurement": "appearance after humidity exposure", "setting": "exposed to 75% RH for 2 hours", "value": "became tacky and stuck to the vial"}
    ]}
  ]
}
